Patent US20140121233A1, “Synthesis and Characterization of Second Generation Benzofuranone Ring Substituted Noscapine Analogs” (GEORGIA STATE UNIVERSITY RESEARCH FOUNDATION, INC., priority 2011, published 2014)
Read-outs that look alike come from different tables or passages of the source.

Experiments:
[1] = system: PC-3 (prostate) cancer cells; assay: MTT cytotoxicity assay, PC-3; type: cell-based; conditions: 48 h drug incubation
Method: (§1) CEM (lymphoma), A549 (lung), PC-3 (prostate), MIA PaCa-2 (pancreatic), MCF-7 and MDA-MB-231 (breast) cancer cells were purchased from ATCC. PC3, A549, MDA-MB-231 and CEM were cultured in RPMI-1640 medium supplemented with 10% Fetal Bovine Serum (FBS) and 1% penicillin/streptomycin. MIA PaCa-2 and MCF-7 cells were cultured in DMEM supplemented with 10% FBS and 1% penicillin/streptomycin. Primary human dermal fibroblasts (HDF) from the dermis of normal human neonatal foreskin were obtained from the Dermatology Department, Emory University. MTT dye (Thiazolyl Blue Tetrazolium Bromide) dimethyl sulfoxide (DMSO), propidium iodide and RNase were purchased from Sigma (St. Louis, Mo.). Cells were cultured at 37° C. with 5% CO2.
(§2) MTT (3-(4,5-dimethylthiazol-2-yl)-2,5-diphenyltetrazolium bromide) assay was employed to evaluate the proliferative capacity of cells. Essentially, MTT is a colorimetric assay, which utilizes the […] tetrazolium dye and converts it into a colored formazan salt, which can be quantified by measuring absorbance at 570 nm. Briefly, a 96-well format was used to seed […] medium containing cells at a density of 5×10^3 cellsper well. After 24 h of incubation, cells were treated with gradient concentration of the test compounds, which were dissolved in DMSO. The final concentration of DMSO in the culture medium was maintained at 0.1%. After 48 h of drug incubation, the spent medium was removed and the wells were washed twice with PBS. 100 μl of fresh medium and 10 μl of MTT (5 mg/ml in PBS) was added to the wells and cells were incubated at 37° C. in dark for 4 h. The formazan product was dissolved by adding 100 μl of 100% DMSO after removing the medium from each well. The absorbance was measured at 570 nm using a Spectra Max Plus multi-well plate reader (Molecular Devices, USA).

A549 (lung) cancer cells = assay: MTT cytotoxicity assay, A549; type: cell-based
Method: as §1, §2

[2] = system: CEM (lymphoma) cancer cells; assay: MTT cytotoxicity assay, CEM; type: cell-based; conditions: 48 h drug incubation
Method: as §1, §2

[3] = system: MIA PaCa-2 (pancreatic) cancer cells; assay: MTT cytotoxicity assay, MIA PaCa-2; type: cell-based
Method: as §1, §2

[4] = system: cancer cell lines (A549, CEM, MCF-7, MIA PaCa-2, PC-3); assay: MTT cytotoxicity assay, several cancer cell lines together; type: cell-based; conditions: for antiproliferative activity, comparison in words: across cell lines of Table 3
Method: as §1, §2

MDA-MB-231 cells = assay: Cell-cycle analysis by flow cytometry; type: cell-based; conditions: 25 μM; for G2/M population up to 24 h: 12 and 24 h
Method: Flow-cytometric evaluation of the cell-cycle status was performed as described previously. Control and drug treated cells were centrifuged, washed with ice-cold PBS, and fixed in 70% ethanol. Tubes containing the cell pellets were stored at 4° C. for at least 24 h. Cells were then centrifuged at 1000 g for 10 min and the supernatant was discarded. The pellets were washed twice with 5 ml of PBS and then stained with 0.5 ml of propidium iodide (0.1% in 0.6% Triton-X in PBS) and 0.5 ml of RNase A (2 mg/ml) for 45 min in dark. Samples were then analyzed on a BD FACSCanto II flow-cytometer (BD Biosciences, Sparks, Md.).
To gain further insights into the precise mechanisms responsible for inhibition of cellular proliferation, we next examined the effect of benzofuranone ring substituted analogs on cell cycle distribution profiles of breast cancer MDA-MB-231 cells. The effect of compounds 3-7 on mitotic index (percent G2/M cells) and apoptotic index (percent sub-G1 cells) as a function of time in MDA-MB-231 cells was studied using fluorescence activated cell sorting (FACS) analysis. All 5 compounds were used at 25 μM concentration over 48 h of treatment.
Although staining of DNA with propidium iodide is extremely useful to determine the percent cell population in various cell-cycle phases, it has its limitations. For example, it cannot dissect out the differences between G2 and M phases as both have 4N DNA amounts. Thus, to explore further, a mitosis specific marker, MPM-2, was used to distinctly identify which phase the cells were in.

[5] = system: MCF-7 (breast) cancer cells; assay: MTT cytotoxicity assay, MCF-7; type: cell-based
Method: as §1, §2

[6] = Homo sapiens, A549, 48 h drug incubation
[7] = Homo sapiens, MIA PaCa-2, 48 h drug incubation
[8] = Homo sapiens, MCF7, 48 h drug incubation

Structure (SMILES) | melting point | IC50 [1] | IC50 (A549 (lung) cancer cells; 48 h drug incubation) | IC50 [2] | IC50 ([3]; 48 h drug incubation) | antiproliferative activity, comparison in words [4] | IC50 ([4]; lung, lymphoma, pancreatic and prostate, read-out: IC50 values, lung, lymphoma, pancreatic and prostate cancer cells) | G2/M population up to 24 h (MDA-MB-231 cells) | G2/M population at 48 h (MDA-MB-231 cells; 48 h) | IC50 ([5]; 48 h drug incubation) | IC50 ([4]; lung, pancreatic and prostate, read-out: IC50 values, lung, pancreatic and prostate cancer cells) | apoptotic index (sub-G1) (MDA-MB-231 cells; 48 h) | duration of G2 arrest (MDA-MB-231 cells; MPM-2 marker) | IC50 ([4]; majority of the cell lines, read-out: IC50 values, majority of the cell lines) | IC50 (A549 (lung) cancer cells; [6]) | IC50 [3, 7] | IC50 [5, 8]
COc1ccc2c(c1O)C(=O)O[C@@H]2[C@H]1c2c(cc3c(c2OC)OCO3)CCN1C [Compound 2, (S)-7-hydroxy-6-methoxy-3-((R)-4-methoxy-6-methyl-5,6,7,8-tetrahydro[1,3]dioxolo-[4,5-g]isoquinolin-5-yl)isobenzofuran-1(3H)-one] | 142 to 143 °C | – | – | – | – | – | – | – | – | – | – | – | – | – | – | – | –
COc1ccc2c(c1OC(C)=O)C(=O)O[C@@H]2[C@H]1c2c(cc3c(c2OC)OCO3)CCN1C [Compound 3, (S)-5-methoxy-1-(R)-4-methoxy-6-methyl-5,6,7,8-tetrahydro-[1,3]dioxolo[4,5-g]isoquinolin-5-yl)-3-oxo-1,3-dihydroisobenzofuran-4-yl acetate] | – | 9.3 µM | 3.2 µM | 15.5 µM | 1 µM | generally most-effective against most cell lines | 1 to 15 µM | G2/M population increased considerably | G2/M population decreased significantly | 166 µM | – | – | – | – | – | – | –
COc1ccc2c(c1OC(=O)c1ccccc1)C(=O)O[C@@H]2[C@H]1c2c(cc3c(c2OC)OCO3)CCN1C [Compound 4, (S)-5-methoxy-1-(R)-4-methoxy-6-methyl-5,6,7,8-tetrahydro-[1,3]dioxolo[4,5-g]isoquinolin-5-yl)-3-oxo-1,3-dihydroisobenzofuran-4-yl benzoate] | – | 4.8 µM | 4.5 µM | 49 µM | 1.7 µM | – | – | – | – | 34 µM | < 5 µM | – | – | – | – | – | –
CCNC(=O)Oc1c(OC)ccc2c1C(=O)O[C@@H]2[C@H]1c2c(cc3c(c2OC)OCO3)CCN1C [Compound 5] | – | 6.6 µM | 5.6 µM | 1.7 µM | 49 µM | – | – | G2/M population increased considerably | mostly remained arrested in G2/M phase | 49 µM | – | lower compared to compound 3 | the arrest was maintained until 48 h | – | – | – | –
COc1ccc2c(c1OC(=O)Nc1ccccc1)C(=O)O[C@@H]2[C@H]1c2c(cc3c(c2OC)OCO3)CCN1C [Compound 6, (S)-5-methoxy-1-0)-4-methoxy-6-methyl-5,6,7,8-tetrahydro-[1,3]dioxolo[4,5-g]isoquinolin-5-yl)-3-oxo-1,3-dihydroisobenzofuran-4-yl phenylcarbamate] | – | 83.2 µM | 50 µM | 250 µM | 1 µM | – | – | – | – | 182 µM | – | – | – | 50 to 250 µM | – | – | –
COc1ccc2c(c1OC(=O)NCc1ccccc1)C(=O)O[C@@H]2[C@H]1c2c(cc3c(c2OC)OCO3)CCN1C [Compound 7, (S)-5-methoxy-1-((R)-4-methoxy-6-methyl-5,6,7,8-tetrahydro-[1,3]dioxolo[4,5-g]isoquinolin-5-yl)-3-oxo-1,3-dihydroisobenzofuran-4-yl benzylcarbamate] | – | 49 µM | – | 7.1 µM | – | relatively lower IC50 values when compared to compound 6 | – | – | – | – | – | – | – | – | 25 µM | 24.5 µM | 74.1 µM
COc1ccc2c(c1OC)C(=O)O[C@@H]2[C@H]1c2c(cc3c(c2OC)OCO3)CCN1C [Noscapine] | – | 51 µM | – | 20 µM | – | – | – | – | – | – | – | – | – | – | 73 µM | 70 µM | 45 µM
